# From ChEMBL document CHEMBL1133805, “Discovery and initial structure-activity relationships of trisubstituted ureas as thrombin receptor (PAR-1) antagonists” (Bioorg Med Chem Lett, 2001)
# Where a SMILES comes first, the peptide text is derived from it. [ ]: non-standard residue; d: D form. The star is where a group is joined. Phe(4-guanidino) = N=C(N)Nc1ccc(C[C@H](N)C(=O)O)cc1; Phe(4-F) = N[C@@H](Cc1ccc(F)cc1)C(=O)O; Orn = NCCC[C@H](N)C(=O)O; X1 = O=C(/C=C/c1ccccc1)*; Propionyl = CCC(=O)*
# What was measured:
# [1] = species on record: Homo sapiens; assay: Inhibitory concentration against TRAP-stimulated secretion of 3H serotonin from human platelets; format: functional
# [2] = target: T1, Proteinase-activated receptor 1 (Homo sapiens, UniProt P25116); assay: Binding affinity against platelet thrombin receptor
# T1 sequence (P25116 whole entry): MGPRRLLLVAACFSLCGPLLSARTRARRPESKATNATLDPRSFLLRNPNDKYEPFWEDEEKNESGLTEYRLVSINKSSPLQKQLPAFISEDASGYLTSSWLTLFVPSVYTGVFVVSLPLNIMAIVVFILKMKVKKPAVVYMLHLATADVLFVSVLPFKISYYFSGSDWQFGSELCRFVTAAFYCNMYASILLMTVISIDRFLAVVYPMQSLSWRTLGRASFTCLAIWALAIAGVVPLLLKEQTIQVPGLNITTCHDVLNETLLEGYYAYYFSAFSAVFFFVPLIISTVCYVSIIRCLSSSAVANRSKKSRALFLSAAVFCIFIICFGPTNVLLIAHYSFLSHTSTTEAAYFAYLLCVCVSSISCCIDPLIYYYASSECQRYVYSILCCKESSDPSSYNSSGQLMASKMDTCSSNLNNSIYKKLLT
# [3] = Inhibitory activity against ADP or collagen induced platelet activation; format: functional
# [4] = Inhibitory activity against thrombin's catalytic activity was determined; format: functional
SMILES,IC50 [1],further results
CC(C)(C)C(=O)NCc1ccc(NC(=O)N2CCC[C@@H]2[C@@H](O)c2ccc(Cl)c(Cl)c2)cc1,> 10000 nM,–
CC(C)(C)C(=O)NCc1ccc(NC(=O)N2CCC[C@H]2[C@H](O)c2ccc(Cl)c(Cl)c2)cc1,> 10000 nM,–
CC(C)(C)C(=O)NCc1ccc(NC(=O)N(CC(O)c2cccc(Cl)c2Cl)C2CCC2)cc1 (stereo not given),> 10000 nM,–
CC(C)(C)C(=O)NCc1ccc(NC(=O)N(CC(O)c2ccc(C#N)cc2)C2CCC2)cc1 (stereo not given),6000 nM,–
CC(C)N(C[C@@H](O)c1ccc(Cl)c(Cl)c1)C(=O)Nc1ccc(NC(=O)c2ccc(F)cc2F)cc1,> 10000 nM,–
C[C@@H]1CC[C@@H]([C@@H](O)c2ccc(Cl)c(Cl)c2)N1C(=O)Nc1ccc(CNC(=O)C(C)(C)C)cc1,> 10000 nM,–
CC(C)(C)C(=O)NCc1ccc(NC(=O)N(CC(O)c2ccc(F)c(F)c2)C2CCC2)cc1 (stereo not given),10000 nM,–
CC(C)(C)C(=O)NCc1ccc(NC(=O)N2CCCC[C@H]2[C@H](O)c2ccc(Cl)c(Cl)c2)cc1,> 10000 nM,–
CC(C)(C)C(=O)NCc1ccc(NC(=O)N2C[S+]([O-])C[C@@H]2[C@@H](O)c2ccc(Cl)c(Cl)c2)cc1 (stereo not given in full),> 10000 nM,–
CC(C)(C)C(=O)NCc1ccc(NC(=O)N2CCC[C@@H]2[C@H](O)c2ccc(Cl)c(Cl)c2)cc1,> 10000 nM,–
CC(C)(C)C(=O)NCc1ccc(NC(=O)N(CC(O)c2ccc(Cl)cc2Cl)C2CCC2)cc1 (stereo not given),10000 nM,–
CC(C)(C)C(=O)NCc1ccc(NC(=O)N(CC(O)c2ccc(Br)c(Br)c2)C2CCC2)cc1 (stereo not given),1000 nM,–
O=C1N(C[C@@H](O)c2ccc(Cl)c(Cl)c2)CCN1c1ccccc1,> 100000 nM,–
CC(C)N(C[C@@H](O)c1ccc(Cl)c(Cl)c1)C(=O)Nc1ccc(NC(=O)c2ccc(S(N)(=O)=O)cc2)cc1,1000 nM,–
Cc1ccc(C(O)CN(C(=O)Nc2ccc(CNC(=O)C(C)(C)C)cc2)C2CCC2)cc1C (stereo not given),> 10000 nM,–
CC(C)N(C[C@@H](O)c1ccc(Cl)c(Cl)c1)C(=O)Nc1ccc(NC(=O)c2cccc3[nH]cnc23)cc1,1000 nM,–
CC(C)(C)C(=O)NCc1ccc(NC(=O)N2CCCC(O)(c3ccc(Cl)c(Cl)c3)C2)cc1 (stereo not given),500 nM,–
CC(C)N1CC(c2ccc(Cl)c(Cl)c2)CN(c2ccc(CNC(=O)C(C)(C)C)cc2)C1=O (stereo not given),> 10000 nM,–
CC(C)(C)C(=O)NCc1ccc(NC(=O)N2CSC[C@@H]2[C@@H](O)c2ccc(Cl)c(Cl)c2)cc1,2500 nM,–
CC(C)(C)C(=O)NCc1ccc(NC(=O)N2CCC[C@H]2[C@@H](O)c2ccc(Cl)c(Cl)c2)cc1,1500 nM,IC50 [2]: 1100 nM
C[C@H]1CC[C@@H]([C@@H](O)c2ccc(Cl)c(Cl)c2)N1C(=O)Nc1ccc(CNC(=O)C(C)(C)C)cc1,400 nM,IC50 [2]: 1000 nM
CC(C)N(C[C@@H](O)c1ccc(Cl)c(Cl)c1)C(=O)Nc1ccc(CCNC(=O)c2cccc3[nH]cnc23)cc1,360 nM,–
CC(C)(C)C(=O)NCc1ccc(NC(=O)N2CCCC[C@H]2[C@@H](O)c2ccc(Cl)c(Cl)c2)cc1,4300 nM,–
CC(C)(C)C(=O)NCc1ccc(NC(=O)N2CCOC(c3ccc(Cl)c(Cl)c3)C2)cc1 (stereo not given),> 40000 nM,–
CC(C)(C)C(=O)NCc1ccc(NC(=O)N(CC(O)c2cc(Cl)cc(Cl)c2)C2CCC2)cc1 (stereo not given),> 10000 nM,–
CC[C@H]1CC[C@@H]([C@@H](O)c2ccc(Cl)c(Cl)c2)N1C(=O)Nc1ccc(CNC(=O)C(C)(C)C)cc1,700 nM,–
CC(C)(C)C(=O)NCc1ccc(NC(=O)N2CCC(O)(c3ccc(Cl)c(Cl)c3)C2)cc1 (stereo not given),> 40000 nM,–
CC(C)(C)C(=O)NCc1ccc(NC(=O)N(CC(O)c2cccc(C#N)c2)C2CCC2)cc1 (stereo not given),> 10000 nM,–
CCC(=O)NCCC[C@H](NC(=O)[C@H](CCCN=C(N)N)NC(=O)[C@H](CC(C)C)NC(=O)[C@H](Cc1ccc(NC(=N)N)cc1)NC(=O)[C@H](Cc1ccc(F)cc1)NC(=O)/C=C/c1ccccc1)C(N)=O (X1-[Phe(4-F)][Phe(4-guanidino)]LR[Orn](Propionyl)-NH2),120 nM,–
CC(C)C[C@H](NC(=O)[C@H](Cc1ccc(NC(=N)N)cc1)NC(=O)[C@H](Cc1ccc(F)cc1)NC(=O)/C=C/c1ccccc1)C(=O)N[C@@H](CCCN=C(N)N)C(=O)N[C@@H](CCCN)C(N)=O (X1-[Phe(4-F)][Phe(4-guanidino)]LR[Orn]-NH2),54 nM,–

# The next lines start with results.
IC50 [1],SMILES,further results
700 nM,CC(C)N(C[C@@H](O)c1ccc(Cl)c(Cl)c1)C(=O)Nc1ccc(CNC(=O)C(C)(C)C)cc1,IC50 [2]: 700 nM
> 10000 nM,CC(C)N(C[C@@H](O)c1ccc(Cl)c(Cl)c1)C(=O)Nc1ccc(NC(=O)C(C)(C)C)cc1,–
1100 nM,CCCN(C[C@@H](O)c1ccc(Cl)c(Cl)c1)C(=O)Nc1ccc(CNC(=O)C(C)(C)C)cc1,–
> 40000 nM,CC(C)(C)C(=O)NCc1ccc(NC(=O)NC[C@@H](O)c2ccc(Cl)c(Cl)c2)cc1,–
700 nM,CC(C)N(C[C@@H](O)c1ccc(Cl)c(Cl)c1)C(=O)Nc1ccc(CCNC(=O)c2ccc(S(N)(=O)=O)cc2)cc1,–
1000 nM,CC(C)N(C[C@@H](O)c1ccc(Cl)c(Cl)c1)C(=O)Nc1ccc(CNC(=O)C(C)(C)N)cc1,–
6700 nM,CC(C)(C)C(=O)NCc1ccc(NC(=O)N(C[C@@H](O)c2ccc(Cl)c(Cl)c2)C2CC2)cc1,IC50 [2]: 2100 nM
700 nM,CC(C)N(C[C@@H](O)c1ccc(Cl)c(Cl)c1)C(=O)Nc1ccc(CNC(=O)c2cccnc2)cc1,–
> 10000 nM,CCCCN(C[C@@H](O)c1ccc(Cl)c(Cl)c1)C(=O)Nc1ccc(CNC(=O)C(C)(C)C)cc1,–
600 nM,CC(C)N(C[C@@H](O)c1ccc(Cl)c(Cl)c1)C(=O)Nc1ccc(CNC(=O)Nc2ccc(CNC(N)=O)cc2)cc1,–
3800 nM,CCN(C[C@@H](O)c1ccc(Cl)c(Cl)c1)C(=O)Nc1ccc(CNC(=O)C(C)(C)C)cc1,–
400 nM,CC[C@H](C)N(C[C@@H](O)c1ccc(Cl)c(Cl)c1)C(=O)Nc1ccc(CNC(=O)C(C)(C)C)cc1,–
> 10000 nM,CC(C)CN(C[C@@H](O)c1ccc(Cl)c(Cl)c1)C(=O)Nc1ccc(CNC(=O)C(C)(C)C)cc1,–
850 nM,CC(C)N(C[C@@H](O)c1ccc(Cl)c(Cl)c1)C(=O)Nc1ccc(CNC(=O)c2ccc(S(N)(=O)=O)cc2)cc1,IC50 [2]: 1200 nM
230 nM,CC[C@@H](C)N(C[C@@H](O)c1ccc(Cl)c(Cl)c1)C(=O)Nc1ccc(CNC(=O)C(C)(C)C)cc1,IC50 [2]: 120 nM; IC50 [3]: > 10000 nM; Ki [4]: > 10000 nM
230 nM,CC(C)(C)C(=O)NCc1ccc(NC(=O)N(CC(O)c2ccc(Cl)c(Cl)c2)C2CCC2)cc1 (stereo not given),–
40000 nM,CN(C[C@@H](O)c1ccc(Cl)c(Cl)c1)C(=O)Nc1ccc(CNC(=O)C(C)(C)C)cc1,IC50 [2]: 6600 nM
> 10000 nM,CC(C)(C)C(=O)NCc1ccc(NC(=O)N(C[C@@H](O)c2ccc(Cl)c(Cl)c2)c2ccccc2)cc1,–
> 10000 nM,CC(C)N(C[C@@H](O)c1ccc(Cl)c(Cl)c1)C(=O)Nc1ccc(CCNC(=O)C(C)(C)C)cc1,–
1000 nM,CCCC(C)N(C[C@@H](O)c1ccc(Cl)c(Cl)c1)C(=O)Nc1ccc(CNC(=O)C(C)(C)C)cc1 (stereo not given in full),–
1700 nM,CC(C)(C)C(=O)NCc1ccc(NC(=O)N(C[C@@H](O)c2ccc(Cl)c(Cl)c2)C(C)(C)C)cc1,–
1400 nM,CC(C)N(C[C@@H](O)c1ccc(Cl)c(Cl)c1)C(=O)Nc1ccc(CCNC(=O)c2cccnc2)cc1,–
450 nM,CC(C)N(C[C@@H](O)c1ccc(Cl)c(Cl)c1)C(=O)Nc1ccc(CNC(=O)c2cccc3[nH]cnc23)cc1,–
> 10000 nM,CC(C)(C)C(=O)NCc1ccc(NC(=O)N(C[C@@H](O)c2ccc(Cl)c(Cl)c2)C2CCCC2)cc1,–
> 10000 nM,CC(C)N(C[C@@H](O)c1ccc(Cl)c(Cl)c1)C(=O)Nc1ccc(CCNC(=O)c2ccc(F)cc2F)cc1,–
900 nM,CC(C)N(C[C@@H](O)c1ccc(Cl)c(Cl)c1)C(=O)Nc1ccc(CNC(=O)c2ccc(F)cc2F)cc1,–
